Reference: the supplement of paper PMC10307832

Legend:
Experiment in all cases: relative viability (nuclei count vs DMSO), 5 days (fraction); higher = more cells survive
[1] = compound: Cn1c(Nc2ccc(C(F)(F)F)cc2)nc2cc(Oc3ccnc(-c4ncc(C(F)(F)F)[nH]4)c3)ccc21 [RAF265] + CC1(C)CCC(c2ccc(Cl)cc2)=C(CN2CCN(c3ccc(C(=O)NS(=O)(=O)c4ccc(N[C@H](CCN5CCOCC5)CSc5ccccc5)c(S(=O)(=O)C(F)(F)F)c4)cc3)CC2)C1 [Navitoclax] (partner 0.5 µM)
Summary of the method: (§1)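 Lung cancer cell lines were seeded in 1536-well plates and dosed by pin tool the next day, with either a single drug or a fixed anchor-drug dose combined with five library-drug doses (not always all listed) spaced in √10 steps. Five days later, one step fixed the cells and stained their nuclei (final 0.05% Triton X-100, 1% formaldehyde, 1 ug/ml Hoechst), and nuclei were counted on 4× images. Relative viability is the nuclei count in treated wells divided by the count in vehicle wells, and each value is the median of duplicate plates.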

[2] = compound: Cn1c(Nc2ccc(C(F)(F)F)cc2)nc2cc(Oc3ccnc(-c4ncc(C(F)(F)F)[nH]4)c3)ccc21 [RAF265] + O=C(c1cc(Cc2n[nH]c(=O)c3ccccc23)ccc1F)N1CCN(C(=O)C2CC2)CC1 [Olaparib] (partner 8 µM)
Summary of the method: as §1

[3] = compound: C1=CC=C2C(=C1)C=CC(=C2SSC3=C(C=CC4=CC=CC=C43)O)O [IPA-3] + CC(=O)Nc1cccc(-n2c(=O)n(C3CC3)c(=O)c3c(Nc4ccc(I)cc4F)n(C)c(=O)c(C)c32)c1 [Trametinib] (partner 0.02 µM)
Summary of the method: as §1

[4] = compound: Cn1c(Nc2ccc(C(F)(F)F)cc2)nc2cc(Oc3ccnc(-c4ncc(C(F)(F)F)[nH]4)c3)ccc21 [RAF265] + N=C(N)NC(=N)NCCc1ccccc1 [Phenformin] (partner 250 µM)
Summary of the method: as §1

Cell Line	relative viability ([1]; first compound 0.01 µM)	relative viability ([1]; first compound 0.03162 µM)	relative viability ([1]; first compound 0.1 µM)	relative viability ([1]; first compound 0.3162 µM)	relative viability ([1]; first compound 1 µM)	relative viability ([2]; first compound 0.01 µM)	relative viability ([2]; first compound 0.03162 µM)	relative viability ([2]; first compound 0.1 µM)	relative viability ([2]; first compound 0.3162 µM)	relative viability ([2]; first compound 1 µM)	relative viability ([3]; first compound 0.2 µM)	relative viability ([3]; first compound 0.6325 µM)	relative viability ([3]; first compound 2 µM)	relative viability ([3]; first compound 6.325 µM)	relative viability ([3]; first compound 20 µM)	relative viability ([4]; first compound 0.01 µM)	relative viability ([4]; first compound 0.03162 µM)	relative viability ([4]; first compound 0.1 µM)	relative viability ([4]; first compound 0.3162 µM)	relative viability ([4]; first compound 1 µM)
201T	1.23	1.2	1.23	1.27	1.28	0.839	0.804	0.887	0.824	0.828	0.73	0.679	0.714	0.744	0.786	0.392	0.422	0.453	0.434	0.38
A549	1.31	1.19	1.06	0.669	0.624	0.41	0.367	0.404	0.0957	0.0721						0.148	0.123	0.201	0.0774	0.0726
A-427	0.929	0.678	0.96	0.579	0.272	0.831	0.604	0.712	0.459	0.29	0.798	0.769	0.705	0.629	0.732	0.361	0.266	0.307	0.204	0.124
ABC-1						0.919	0.649	0.952	1.07	0.791						0.21	0.223	0.228	0.187	0.21
BEN	0.0592	0.0731	0.0721	0.0801	0.0649	1.04	1.09	1.16	1.19	0.846	1.05	1.04	1.15	1.13	1.16	0.276	0.267	0.274	0.263	0.239
CAL-12T	1.28	1.01	0.861	0.757	0.523	0.84	0.645	0.677	0.592	0.593	0.505	0.366	0.232	0.338	0.457	0.581	0.521	0.426	0.516	0.363
COR-L23	0.976	0.957	0.918	0.512	0.514	0.395	0.329	0.305	0.307	0.184	0.743	0.557	0.654	0.579	0.21	0.507	0.395	0.344	0.315	0.258
COR-L 105	0.853	0.878	0.668	0.685	0.339	0.727	0.618	0.703	0.772	0.485	0.484	0.509	0.474	0.445	0.442	0.463	0.621	0.457	0.3	0.358
Calu-6	0.753	0.588	0.569	0.304	0.221	0.6	0.591	0.528	0.442	0.255										
